Data on 23 compounds can be found in PubChem BioAssay AID248 (DTP/NCI, 2004).

This assay relates to L1210 leukemia ip in BDF1 mice, survival T/C. Briefly: NCI In Vivo Anticancer Drug Screen. Data for tumor model L1210 Leukemia (intraperitoneal) in B6D2F1 (BDF1) mice. The note with it: endpoint: mean survival time, higher = longer survival. The procedure, abridged:
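Each compound was tested against a transplantable tumor grown in mice. The endpoint was survival, with treated animals benchmarked against vehicle controls as a simple ratio.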

Setting [1] is: dose: 25.0 mg/kg/injection, schedule: Q04DX002 (ip), vehicle: saline with Tween-80.
The mark [2] stands for this setting: dose: 50.0 mg/kg/injection, schedule: Q01DX001 (ip), vehicle: saline.
The mark [3] stands for this setting: dose: 50.0 mg/kg/injection, schedule: Q04DX002 (ip), vehicle: saline with Tween-80.
[4] abbreviates: dose: 100.0 mg/kg/injection, schedule: Q01DX001 (ip), vehicle: saline.
[5] abbreviates: dose: 100.0 mg/kg/injection, schedule: Q04DX002 (ip), vehicle: saline with Tween-80.
The mark [6] stands for this setting: dose: 200.0 mg/kg/injection, schedule: Q01DX001 (ip), vehicle: saline.
[7] abbreviates: dose: 200.0 mg/kg/injection, schedule: Q04DX002 (ip), vehicle: saline with Tween-80.
Setting [8] is: dose: 400.0 mg/kg/injection, schedule: Q01DX001 (ip), vehicle: saline.
Where [9] appears, read: dose: 100.0 mg/kg/injection, schedule: Q01DX001 (ip), vehicle: carboxymethylcellulose (CMC).
Setting [10] is: dose: 200.0 mg/kg/injection, schedule: Q01DX001 (ip), vehicle: carboxymethylcellulose (CMC).
[11] abbreviates: dose: 400.0 mg/kg/injection, schedule: Q01DX001 (ip), vehicle: carboxymethylcellulose (CMC).
Setting [12] is: dose: 100.0 mg/kg/injection, schedule: Q01DX009 (ip), vehicle: Klucel (hydroxypropylcellulose) (HPC).
Where [13] appears, read: dose: 200.0 mg/kg/injection, schedule: Q01DX009 (ip), vehicle: Klucel (hydroxypropylcellulose) (HPC).
[14] abbreviates: dose: 400.0 mg/kg/injection, schedule: Q01DX009 (ip), vehicle: Klucel (hydroxypropylcellulose) (HPC).
The mark [15] stands for this setting: dose: 400.0 mg/kg/injection, schedule: Q04DX002 (ip), vehicle: saline with Tween-80.
The mark [16] stands for this setting: dose: 100.0 mg/kg/injection, schedule: Q04DX002 (ip), vehicle: Klucel (hydroxypropylcellulose) (HPC).
The mark [17] stands for this setting: dose: 100.0 mg/kg/injection, schedule: Q04DX003 (ip), vehicle: Klucel (hydroxypropylcellulose) (HPC).

Where “and” joins values, the source holds several entries; their conditions need not be identical. Equal entries are not always repeated. Inconclusive results and toxic doses are left out.

With `O=C1OC(C(O)CO)C(O)C1O` (stereo not drawn), the T/C is, setting by setting: under setting [1], 101 % of control; under setting [2], 94 % of control; under setting [3], 101 % of control; under setting [4], 100 % of control; under setting [5], 96 % of control; under setting [6], 100 % of control. In addition, the T/C under setting [7] was 101 % of control and the T/C under setting [8] is 92 % of control.

On to `O=C(Oc1ccc(N=Cc2ccc3c(c2)OCO3)cc1)Oc1ccc(N=Cc2ccc3c(c2)OCO3)cc1`, for which the T/C is 96 % of control under setting [9], 95 % of control under setting [10] and 93 % of control under setting [11].

Turning to `CCOP(=S)(N1CC1(C)C)N1CC1(C)C` (stereo not drawn), the T/C is 105 % of control (dose: 12.5 mg/kg/injection, schedule: Q01DX015 (ip), vehicle: carboxymethylcellulose (CMC)); 105 % of control (dose: 25.0 mg/kg/injection, schedule: Q01DX015 (ip), vehicle: carboxymethylcellulose (CMC)); 111 % of control (dose: 50.0 mg/kg/injection, schedule: Q01DX015 (ip), vehicle: carboxymethylcellulose (CMC)); 152 % of control (dose: 100.0 mg/kg/injection, schedule: Q01DX015 (ip), vehicle: carboxymethylcellulose (CMC)); 164 % of control (dose: 200.0 mg/kg/injection, schedule: Q01DX015 (ip), vehicle: carboxymethylcellulose (CMC)).

`O=C(CC(=O)c1ccccc1)c1ccccc1.O=C(CC(=O)c1ccccc1)c1ccccc1.O=C(CC(=O)c1ccccc1)c1ccccc1.[Al]`: the T/C is 100 % of control (dose: 100.0 mg/kg/injection, schedule: Q04DX002 (ip), vehicle: gum acacia); 97 % of control (dose: 200.0 mg/kg/injection, schedule: Q04DX002 (ip), vehicle: gum acacia); 90 % of control (dose: 400.0 mg/kg/injection, schedule: Q04DX002 (ip), vehicle: gum acacia).

`O=C1CC(c2ccccc2)=NCCN1`: the T/C by setting is: under setting [12], 97 % of control; under setting [13], 95 % of control; under setting [14], 114 % of control.

With `C=C(C)CC1(CC)C(=O)NC(=S)NC1=O`, the T/C is 96 % of control (dose: 100.0 mg/kg/injection, schedule: Q04DX003 (ip), vehicle: saline with Tween-80) and 98 % of control (dose: 200.0 mg/kg/injection, schedule: Q04DX003 (ip), vehicle: saline with Tween-80).

As for `O=C(NCCN1CCOCC1)Nc1cccc2c1CCCC2`, the T/C is 94 % of control under setting [5], 108 % of control under setting [7] and 116 % of control under setting [15].

For `CC(CO)(CO)N=Cc1ccccc1`, the T/C by setting is: under setting [2], 112 % of control; under setting [4], 112 % of control; under setting [6], 100 % of control; under setting [8], 100 % of control.

Turning to `CCC1(C)CCC2(C)C(CCC3C(C)(CO)CCCC32O)C1` (stereo not drawn), the T/C is 96 % of control (dose: 12.5 mg/kg/injection, schedule: Q04DX002 (ip), vehicle: saline with Tween-80); 96 % of control under setting [1]; 96 % of control under setting [3].

For the compound `Nc1ccn([C@@H](C=O)O[C@@H](C=O)CO)c(=O)n1`, the T/C reads like this: (dose: 35.0 mg/kg/injection, schedule: Q01DX009 (ip), vehicle: water) 111 % of control; (dose: 35.0 mg/kg/injection, schedule: Q01DX Z (ip), vehicle: water) 107 % of control; (dose: 70.0 mg/kg/injection, schedule: Q01DX009 (ip), vehicle: water) 122 % of control; (dose: 70.0 mg/kg/injection, schedule: Q01DX Z (ip), vehicle: water) 123 % of control; (dose: 140.0 mg/kg/injection, schedule: Q01DX009 (ip), vehicle: water) 161 % of control.

As to `Cc1ncc(CO)c(C2NOCc3nccnc32)c1O` (stereo not drawn), the T/C by setting is: (dose: 3.12 mg/kg/injection, schedule: Q01DX009 (ip), vehicle: saline) 93 % of control; (dose: 6.25 mg/kg/injection, schedule: Q01DX009 (ip), vehicle: saline) 92 % of control; (dose: 12.5 mg/kg/injection, schedule: Q01DX009 (ip), vehicle: saline) 90 % of control; (dose: 12.5 mg/kg/injection, schedule: Q04DX003 (ip), vehicle: saline) 95 % of control.

Consider `COc1cc(/C=N/N)cc(OC)c1OC`, for which the T/C by setting is: (dose: 25.0 mg/kg/injection, schedule: Q04DX002 (ip), vehicle: Klucel (hydroxypropylcellulose) (HPC)) 117 % of control; (dose: 50.0 mg/kg/injection, schedule: Q04DX002 (ip), vehicle: Klucel (hydroxypropylcellulose) (HPC)) 117 % of control; under setting [16], 98 % of control and 109 % of control.

For the compound `C=CCc1ccc(OCCOCCNC2CC(C)CCC2C(C)C)c(OC)c1` (stereo not drawn), under setting [17], the T/C was 92 % of control.

For the compound `CC(O)C[As](=O)(O)c1ccc(Cl)cc1` (stereo not drawn), the T/C (dose: 25.0 mg/kg/injection, schedule: Q04DX003 (ip), vehicle: saline with Tween-80) is 94 % of control.

With `NCC(=O)NCCCC(=O)O`, the T/C (dose: 18.75 mg/kg/injection, schedule: Q01DX001 (ip), vehicle: saline) is 90 % of control; the T/C (dose: 37.5 mg/kg/injection, schedule: Q01DX001 (ip), vehicle: saline) was 101 % of control; the T/C (dose: 75.0 mg/kg/injection, schedule: Q01DX001 (ip), vehicle: saline) is 104 % of control.

Consider `Nc1[nH]c(=O)[nH]c(=O)c1N=Nc1ccc(S(=O)(=O)Nc2nccs2)cc1`, for which the T/C is 98 % of control under setting [4], 100 % of control under setting [6] and 102 % of control under setting [8].

For `O=S1(=O)C=C(Br)C1`, the T/C under setting [16] was 94 % of control and 106 % of control; the T/C (dose: 200.0 mg/kg/injection, schedule: Q04DX002 (ip), vehicle: Klucel (hydroxypropylcellulose) (HPC)) was 106 % of control.

`CC(=O)OC1CCC2(C)C3CCC4(C)C(c5ccc(=O)oc5)CC5OC54C3CCC2(O)C1` (stereo not drawn): the T/C by setting is: (dose: 1.0 mg/kg/injection, schedule: Q01DX001 (sc), vehicle: steriod suspending solution) 98 % of control; (dose: 2.0 mg/kg/injection, schedule: Q01DX001 (sc), vehicle: steriod suspending solution) 96 % of control; (dose: 4.0 mg/kg/injection, schedule: Q01DX001 (sc), vehicle: steriod suspending solution) 96 % of control; (dose: 8.0 mg/kg/injection, schedule: Q01DX001 (sc), vehicle: steriod suspending solution) 107 % of control; (dose: 12.0 mg/kg/injection, schedule: Q01DX001 (sc), vehicle: steriod suspending solution) 113 % of control; (dose: 16.0 mg/kg/injection, schedule: Q01DX001 (sc), vehicle: steriod suspending solution) 107 % of control. In addition, the T/C (dose: 32.0 mg/kg/injection, schedule: Q01DX001 (sc), vehicle: steriod suspending solution) was 114 % of control; the T/C (dose: 64.0 mg/kg/injection, schedule: Q01DX001 (sc), vehicle: steriod suspending solution) is 103 % of control; the T/C (dose: 128.0 mg/kg/injection, schedule: Q01DX001 (sc), vehicle: steriod suspending solution) is 115 % of control.

Take `NS(=O)(=O)c1ccc(N=NN2CCOCC2)cc1`: the T/C was 115 % of control under setting [5], 108 % of control under setting [7] and 115 % of control under setting [15].

In the case of `O=c1oc2ccc(Cl)cc2n1CN1CCOCC1`, the T/C under setting [9] is 96 % of control, the T/C under setting [10] was 96 % of control and the T/C under setting [11] was 88 % of control.

Turning to `O=C(O)C(F)(F)C(F)(F)C(F)(F)F`, the T/C was 105 % of control under setting [4], 103 % of control under setting [6] and 92 % of control under setting [8].

Take `Cc1ccc2nc3c4ccccc4c4ccccc4c3nc2c1`: the T/C under setting [12] was 101 % of control; the T/C under setting [17] was 105 % of control; the T/C under setting [13] is 102 % of control; the T/C (dose: 200.0 mg/kg/injection, schedule: Q04DX003 (ip), vehicle: Klucel (hydroxypropylcellulose) (HPC)) is 105 % of control; the T/C under setting [14] was 101 % of control; the T/C (dose: 400.0 mg/kg/injection, schedule: Q04DX003 (ip), vehicle: Klucel (hydroxypropylcellulose) (HPC)) is 98 % of control.

Take `CC1C2C=CC1C(c1c3ccc(=O)c(O)c-3oc3c(O)c(O)ccc13)C2C(=O)O` (stereo not drawn): the T/C is 105 % of control (dose: 100.0 mg/kg/injection, schedule: Q04DX003 (ip), vehicle: saline); 103 % of control (dose: 200.0 mg/kg/injection, schedule: Q04DX003 (ip), vehicle: saline); 100 % of control (dose: 400.0 mg/kg/injection, schedule: Q04DX003 (ip), vehicle: saline).
